Measurements from the supplement of paper PMC11562712.

Assay: first-order primary biodegradation rate constant k (sorption-corrected, fDis-corrected) (d-1); higher = faster biodegradation
How it was run: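 River water and sieved sediment (50 g wet solid L^–1) from segments in Germany, Switzerland, Spain and Greece were spiked with 129 compounds at 1 μg L^–1 each and shaken in the dark at river water temperature (20.5 ± 3.5 °C) for 10 days, in three replicates. After filtration, water-phase subsamples were analysed by Orbitrap tandem mass spectrometry following ultra-high-performance liquid chromatography. First-order k was taken from log peak-area regression, corrected using azide-sterilised sorption controls and divided by the dissolved fraction, excluding invalid fits.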

[1] = river segment: Germany (DE) H_Contam, incubation temperature 24 °C
[2] = river segment: Germany (DE) T_Contam, incubation temperature 24 °C
[3] = river segment: Germany (DE) T_Pris, incubation temperature 24 °C
[4] = river segment: Greece (EL) A_Contam, incubation temperature 19 °C
[5] = river segment: Greece (EL) G_Contam, incubation temperature 19 °C
[6] = river segment: Greece (EL) L_Contam, incubation temperature 19 °C
[7] = river segment: Spain (ES) C_Contam, incubation temperature 24 °C
[8] = river segment: Spain (ES) F_Pris_Salt, incubation temperature 24 °C
[9] = river segment: Switzerland (CH) C_Contam, incubation temperature 17 °C
[10] = river segment: Switzerland (CH) U_Pris, incubation temperature 17 °C
[11] = river segment: Greece (EL) G_Pris, incubation temperature 19 °C
[12] = river segment: Spain (ES) B_Contam, incubation temperature 24 °C
[13] = river segment: Spain (ES) L_Contam, incubation temperature 24 °C
[14] = river segment: Switzerland (CH) R_Contam, incubation temperature 17 °C
[15] = river segment: Switzerland (CH) U_Contam, incubation temperature 17 °C

| SMILES | first-order primary biodegradation rate constant k [1] | first-order primary biodegradation rate constant k [2] | first-order primary biodegradation rate constant k [3] | first-order primary biodegradation rate constant k [4] | first-order primary biodegradation rate constant k [5] | first-order primary biodegradation rate constant k [6] | first-order primary biodegradation rate constant k [7] | first-order primary biodegradation rate constant k [8] | first-order primary biodegradation rate constant k [9] | first-order primary biodegradation rate constant k [10] | first-order primary biodegradation rate constant k [11] | first-order primary biodegradation rate constant k [12] | first-order primary biodegradation rate constant k [13] | first-order primary biodegradation rate constant k [14] | first-order primary biodegradation rate constant k [15] |
| --- | --- | --- | --- | --- | --- | --- | --- | --- | --- | --- | --- | --- | --- | --- | --- |
| COC(=O)c1ccc(O)cc1 [Methylparaben] | 0.119 | 0.0815 | 0.1 | 0.106 | 0.0602 | 0.211 | 0.151 | 4.7 | 0.175 | 0.0832 |  |  |  |  |  |
| Cc1ccc(S(=O)(=O)O)cc1 [p-Toluenesulfonic acid] | 1.06 | 0.52 | 0.422 | 0.369 |  | 0.27 | 0.543 | 0.0548 | 0.764 | 0.12 | 0.0811 | 0.18 | 0.55 | 0.292 | 0.186 |
| COc1cc(Cc2cnc(N)nc2N)cc(OC)c1OC [Trimethoprim] | 0.173 |  | 0.612 | 0.431 | 0.993 | 1.57 | 0.383 | 0.726 | 1.11 | 2.52 | 0.704 | 0.192 | 0.758 | 1.65 | 2.23 |
| COc1ccc(NC(=O)N(C)C)cc1Cl [Metoxuron] | 0.0437 | 0.106 | 0.0159 | 0.209 | 0.0278 | 0.0742 |  |  |  |  | 0.333 |  | 0.0285 |  | 0.022 |
| CC1(C)C[C@@H]1C(=O)N/C(=C\CCCCSC[C@H](N)C(=O)O)C(=O)O [Cilastatin] | 5.75 | 5.89 | 4.29 | 7.64 | 5.93 | 5.07 | 7.57 | 8.78 | 7.85 | 10.7 | 22 | 10.1 | 12.5 | 7.32 | 7.54 |
| N#Cc1cc(Br)c(O)c(Br)c1 [Bromoxynil] |  | 0.133 |  |  |  | 0.0249 |  |  |  | 0.0852 |  |  | 0.0939 |  |  |
| Cc1cc(O)cc(C)c1Cl [4-Chloro-3,5-dimethylphenol] | 1.4 | 2.27 | 1.68 | 2.03 | 0.169 | 3.5 | 2.41 | 0.228 |  | 4.31 | 3.52 |  | 4.19 |  |  |
| Cc1ccc(-c2nc3ccc(C)cn3c2CC(=O)N(C)C)cc1 [Zolpidem] | 0.202 | 0.672 | 0.0723 | 0.464 |  | 2.27 | 0.0357 | 0.00549 | 0.0346 | 0.135 | 0.19 | 0.709 | 0.761 | 0.0249 | 0.0604 |
| C/C(=N\C#N)N(C)Cc1ccc(Cl)nc1 [Acetamiprid] | 0.0195 | 0.217 | 0.0162 | 0.097 | 0.0201 | 0.0691 | 0.00952 |  | 0.031 | 0.386 | 0.125 |  | 0.0364 | 0.139 | 0.106 |

Continued, values first:

| first-order primary biodegradation rate constant k [1] | first-order primary biodegradation rate constant k [2] | first-order primary biodegradation rate constant k [3] | first-order primary biodegradation rate constant k [4] | first-order primary biodegradation rate constant k [5] | first-order primary biodegradation rate constant k [6] | first-order primary biodegradation rate constant k [7] | first-order primary biodegradation rate constant k [8] | first-order primary biodegradation rate constant k [9] | first-order primary biodegradation rate constant k [10] | first-order primary biodegradation rate constant k [11] | first-order primary biodegradation rate constant k [12] | first-order primary biodegradation rate constant k [13] | first-order primary biodegradation rate constant k [14] | first-order primary biodegradation rate constant k [15] | SMILES |
| --- | --- | --- | --- | --- | --- | --- | --- | --- | --- | --- | --- | --- | --- | --- | --- |
| 0.297 | 0.215 | 0.165 | 0.291 | 0.171 | 0.42 | 0.218 | 0.241 | 0.177 | 0.606 | 0.258 | 0.253 | 0.252 | 0.263 | 0.332 | COCCc1ccc(OCC(O)CNC(C)C)cc1 (configuration not stated) [Metoprolol] |
| 0.161 |  |  |  |  |  |  |  |  |  | 0.0725 |  | 0.426 |  | 0.0556 | CCCCC1=NC2(CCCC2)C(=O)N1Cc1ccc(-c2ccccc2-c2nnn[nH]2)cc1 [Irbesartan] |
| 0.0462 | 0.0831 | 0.00627 | 0.327 |  | 0.219 | 0.102 |  | 0.0095 | 0.282 | 0.771 | 0.0714 | 0.219 | 0.134 | 0.139 | Cc1ccc2n[nH]nc2c1 [5-Methylbenzotriazole] |
|  |  | 0.212 |  | 0.108 | 7.88 |  | 0.145 |  |  |  |  |  |  |  | CO[C@@H]1[C@@H](OC(N)=O)[C@@H](O)[C@H](Oc2ccc3c(O)c(NC(=O)c4ccc(O)c(CC=C(C)C)c4)c(=O)oc3c2C)OC1(C)C [Novobiocin] |
| 0.0696 | 0.497 | 0.23 | 0.235 |  |  | 0.0725 | 0.804 | 0.174 | 1.7 |  |  |  |  | 1.41 | Cc1cccc(Nc2ccccc2C(=O)O)c1C [Mefenamic acid] |
| 0.0105 | 0.00344 |  | 0.0177 |  | 0.0298 | 0.287 |  | 0.00975 | 0.0138 | 0.00116 | 0.0307 | 0.118 | 0.00379 | 0.0121 | CCN(CC)CC(=O)Nc1c(C)cccc1C [Lidocaine] |
| 0.0111 | 0.266 | 0.0301 | 0.501 | 0.129 |  |  |  | 0.0234 | 0.0314 | 0.106 | 0.0427 | 0.00307 |  | 0.00879 | CCN1CCCC1CNC(=O)c1cc(S(=O)(=O)CC)c(N)cc1OC (configuration not stated) [Amisulpride] |
